The values below come from US20190367871A1, “EMBRYONIC STEM CELL MEDIA AND CULTURE” (YISSUM RESEARCH DEVELOPMENT COMPANY OF THE HEBREW …, priority 2018, published 2019).

The target of test [1] is Bax (BCL2 associated X, apoptosis regulator) (human) (UniProt Q07812). Description: cell-based or functional assay.
Test [2] has as its system hESCs. Description: Effect of Bax inhibition on hESC growth (CellTiter-Glo luminescence). Type of test: cell-based, human. To be noted: 100 or 200 uM, after 24 hours, vs 0 uM. As to the method: Next, we examined the effect of Bax inhibition on hESC growth. hESCs were treated with either 0, 100, or 200 uM of BAX-inhibiting peptide V5 (BIP-V5, Sigma). At time point zero when the peptide was added CellTiter-Glo reagent was also added to the cells and luminescence was measured with a plate reader. Bax inhibition increased the relative growth of the hESCs by 15-25% after 24 hours (FIG. 13).

Test [3] has as its system hESCs. The experiment in a line: Cell-cycle profile by PI staining and flow cytometry. Format: cell-based, human. To be noted: IGF1-treated vs control diploid hESCs. As to the method: PI staining was performed as described in Sagi, I., Egli, D. & Benvenisty, N. Identification and propagation of haploid human pluripotent stem cells. Nat. Protoc. 11, 2274-2286 (2016). Briefly, hESCs were trypsinized with TrypLE Select and fixed with cold methanol (4° C.). Fixed cells were treated with 200 μg ml^−1 RNase A (Sigma) for 30 min and stained with 50 μg ml^−1 PI for 5 min. Stained cells were filtered through a 70 μm cell strainer and analysed in BD FACSAria III for their cell-cycle profile.

A further test has as its system diploid hESCs. Description: Growth curve of hESCs (CellTiter-Glo luminescent cell viability assay). Type of test: cell-based, human. As to the method:
All genes were targeted with commercial pooled siRNAs to increase the specificity of the knockdown. esiRNAs for SALL4, DSCC1 and SEPHS1 and the control esiRNA for Renilla luciferase were obtained from Sigma (cat. nos. EHU037061, EHU021301, EHU107861 and EHURLUC, respectively). siRNA for VRTN was obtained from GE Healthcare Dharmacon (cat. no. L-021159-02-0005). Briefly, 30-50 nM siRNA was mixed with 0.14 μl of DharmaFECT 1 transfection reagent (GE Healthcare Dharmacon) in Opti-MEM I reduced serum medium (Thermo Fisher Scientific) for 30 min. The transfection mix was added on a matrigel-coated well of a 96-well plate and 3,000 hESCs were plated on the transfection mix in the presence of mTeSR 1 medium. The cells were subsequently grown for 3-4 days and the mTeSR 1 medium was replaced every 24 h. Cell viability was assessed by a CellTiter-Glo luminescent cell viability assay according to the manufacturer's instructions (Promega). Luminescence reads for the target genes were normalized to control siRNA conditions, and the replicate experiments were averaged. For growth curves of IGF1-treated and control hESCs, cells were plated in matrigel-coated wells with equal numbers and their density was measured for four consecutive days with CellTiter-Glo luminescent cell viability assay (Promega). The density measured one day after plating was considered Day 0, after which cells were switched to MEF-conditioned medium containing 100 ng ml^−1 IGF1. Every day was normalized to Day 0 and replicate experiments were averaged.

Test [4] concerns hESCs. Description: TRA-1-60 immunocytochemistry (flow cytometry of TRA-1-60-positive pluripotent cells). Format: cell-based, human. To be noted: IGF1-treated vs control diploid hESCs. As to the method: hESCs were trypsinized with TrypLE Select. Cells were collected in cold PBS containing 10% KSR, centrifuged at 300 g for 5 min and resuspended in 200 μl PBS containing 10% KSR. PE-conjugated mouse anti-human TRA-1-60 antibody (1:40, BD Biosciences) was then incubated with the cells for 30 min at 4° C. Cells were washed with PBS containing 10% KSR twice, centrifuged at 300 g at 4° C. and resuspended in PBS with 10% KSR. Immunolabelled cells were filtered through a 70 μm cell strainer and analysed in BD FACSAria III for the proportion of TRA-1-60-positive cells.

Test [5] has as its system hESCs. Description: Apoptosis assay (Annexin V / PI flow cytometry). Type of test: cell-based, human. To be noted: IGF1-treated vs control diploid hESCs. From the text: hESCs were trypsinized gently with TrypLE Select. Apoptotic cells were labelled with Annexin V and propidium iodide (PI) using the MEBCYTO Apoptosis Kit according to the manufacturer's instructions (MBL). Labelled cells were filtered through a 70 μm cell strainer and analysed in BD FACSAria III for the proportion of annexin V-positive cells.

In test [6] the test system is human foreskin fibroblasts. Description: Growth of fibroblasts under mTOR inhibitor treatment (CellTiter-Glo). To be noted: two days of treatment, low nanomolar concentrations. Format: cell-based.

UniProt Q07812, sequence (Q07812 whole entry): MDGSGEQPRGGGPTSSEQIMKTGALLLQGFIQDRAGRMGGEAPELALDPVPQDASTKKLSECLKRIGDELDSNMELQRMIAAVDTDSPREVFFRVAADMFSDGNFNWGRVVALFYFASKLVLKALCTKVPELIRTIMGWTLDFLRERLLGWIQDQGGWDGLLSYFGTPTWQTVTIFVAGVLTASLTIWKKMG

BAX-inhibiting peptide V5 returned a relative growth of hESCs (CellTiter-Glo luminescence) after 24 hours in test [1] of 15 to 25%.
In the case of BAX-inhibiting peptide V5 [BIP-V5], in the test on hESCs [2], the “increase in relative growth of hESCs” value is given as 15-25%.
For insulin like growth factor 1 [IGF1], in the test on hESCs [3], the “cell-cycle (cells in G2/M phase)” value was “not affecting”. The “growth rate of diploid hESCs” value with diploid hESCs (IGF1 100 ng ml^-1 in MEF-conditioned medium, especially low levels of KSR, vs untreated control) is “significantly increased the growth rate”. Moreover, in the test on diploid hESCs (rapamycin + IGF1 vs rapamycin alone), the “rescue of rapamycin growth-inhibition of hESCs” value is “failed to rescue”. The “differentiation dynamics (TRA-1-60+ pluripotent cells)” value in the test with hESCs [4] is given as “not affecting”. Further, the “percentage of apoptotic hESCs” value with hESCs [5] is recorded as “significantly decreases the percentage of apoptotic hESCs”.
Take `CCC(=O)N1CCN(c2ccc(-n3c(=O)ccc4cnc5ccc(-c6cnc7ccccc7c6)cc5c43)cc2C(F)(F)F)CC1` [Torin 1, reference compound]: in the test on diploid hESCs (two days of treatment, low nanomolar concentrations), the “growth and survival of hESCs” value is “completely abolished”. In test [6], the “growth inhibition of fibroblasts” value is on record as “up to 60%”.
